# From patent publication US20070149485A1, “SELECTED DOSAGE FOR THE TREATMENT OF CARDIOVASCULAR AND RELATED PATHOLOGIES” (Medicure International, Inc., priority 2005, published 2007)
# How the values were obtained:
# [1] = test system: high-risk patients undergoing CABG surgery with cardiopulmonary bypass; assay: Oral P5P in high-risk patients undergoing CABG surgery (randomized, double-blind, placebo-controlled): myocardial infarction and combined incidents to POD 30; assay type: in vivo, human; conditions: for Frequencies of myocardial infarction, cerebral infarction, or death, at POD 30: Myocardial infarction, cerebral infarction or death / Frequencies of myocardial infarction, cerebral infarction, or death, at POD 30: No myocardial infarction, cerebral infarction or death / Frequencies of myocardial infarction at POD 30: Myocardial Infarction / Frequencies of myocardial infarction at POD 30: No myocardial infarction: number of patients (% of group); for reducing post-CABG morbidity and mortality: CK-MB 100 ng/ml (post-hoc) as indicator; for reducing instances of myocardial infarction: vs placebo
# Source text: A randomized, double-blind placebo-controlled, dose-ranging, parallel-arrn multi-center study was undertaken, on high-risk patients undergoing CABG surgery with cardiopulmonary bypass.
# Patients were identified as “high risk” if they had two or more of the following risk factors: • Age greater than 65 years; • Current smoker;
# Approximately 900 high risk pre-CABG patients in 42 different treatment centers in North America were screened and randomized to three groups of approximately 300 patients each, prior to their bypass surgery, as follows. Patients were either placed in a control group (placebo), treated orally with 250 mg/day of P5P (250 mg/day), or treated orally with 750 mg/day of P5P (750 mg/day).
# The first dose of study medication was administered at 3-10 hours prior to CABG surgery. In the event of surgery delay or rescheduling, a second pre-operative dose of P5P was administered so that all patients received study medication 3-10 hours before surgery. Treatment continued for 30 days after surgery (post operative day (POD) 30). Patients received follow-up evaluations up to and including postoperative day (POD) 4, on POD 30 and on POD 90.
# Patients were measured for combined incidence of cardiovascular death, nonfatal myocardial infarction (MI), and nonfatal cerebral infarction up to and including post-operative day 30 (POD 30). Patients were also measured for nonfatal myocardial infarction alone. All deaths without an identifiable non-cardiovascular cause were considered of cardiovascular origin.
# Cerebral infarction (stroke) was defined clinically as any new sudden onset focal neurological deficit lasting at least 24 hours as assessed by a neurologist and after neuroimaging (computed tomography [CT] brain scan or magnetic resonance imaging [MRI]) had excluded an intracerebral hemorrhage. All patients suspected of having a stroke or transient ischemic attack (TIA) received a neurological examination (conducted by a neurologist or internist with expertise in cerebral vascular disease) within 24 hours of onset of symptoms. All patients suspected of having a stroke were submitted to cerebral imaging.
# When determining whether a patient had myocardial infarction, the following definitions were used: • A peak creatine kinase—myocardial band (CK-MB) above a certain threshold. Since different experts and different prior art clinical trials used different cut-offs for this threshold, three different thresholds were used to determine whether a patient had myocardial infarction—a post-hoc cut off threshold of 100 ng/ml (a peak CK-MB of 100 ng/ml or greater on days up to and including POD 4), a post-hoc cut off threshold of 70 ng/ml, and a predefined cut off threshold of 50 ng/ml was used; • A new q-wave evidence of myocardial infarction along with CK-MB of 35 ng/ml or above on days up to and including POD 4; • A peak CK-MB of 5× ULN (25 ng/ml) or above occurring after POD 4; • A new q-wave evidence of myocardial infarction that was not present at POD 4; or • A q-wave or non-q-wave myocardial infarction as identified by the investigator and confirmed by the Clinical Endpoint Committee. A. Myocardial Infarction Rates CK-MB Cut-off of 100 ng/ml
# [2] = in water, alcohol, and ether; cited from earlier work
# [3] = test system: adenosine triphosphate (ATP) induced calcium ion influx into cells; conditions: a recent evaluation; suggested antagonism of P2 purinoceptors; cited from earlier work
# [4] = test system: animal model of ischemic brain injury; conditions: animal model of ischemic brain injury (Wang, et al, J. Neurosurg. 2005); cited from earlier work
# [5] = oral 250 mg/day, CK-MB cut-off 50 ng/ml
# [6] = oral 250 mg/day, CK-MB cut-off 50 ng/ml (predefined)
# [7] = oral 250 mg/day, CK-MB cut-off 70 ng/ml
# [8] = oral 250 mg/day, CK-MB cut-off 70 ng/ml (post-hoc)
# [9] = oral 250 mg/day, CK-MB cut-off 100 ng/ml
# [10] = oral 250 mg/day, CK-MB cut-off 100 ng/ml (post-hoc)
# [11] = oral 750 mg/day, CK-MB cut-off 50 ng/ml
# [12] = oral 750 mg/day, CK-MB cut-off 50 ng/ml (predefined)
# [13] = oral 750 mg/day, CK-MB cut-off 70 ng/ml
# [14] = oral 750 mg/day, CK-MB cut-off 70 ng/ml (post-hoc)
# [15] = oral 750 mg/day, CK-MB cut-off 100 ng/ml
# [16] = oral 750 mg/day, CK-MB cut-off 100 ng/ml (post-hoc)
smiles,measurement,setting,value
"Cc1ncc(COP(=O)(O)O)c(C=O)c1O [P5P, 3-hydroxy-2-methyl-5-[(phosphonooxy)methyl]-4-pyridine-carboxaldehyde]","Frequencies of myocardial infarction, cerebral infarction, or death, at POD 30: Myocardial infarction, cerebral infarction or death",[1]; [5],65 (21.6%)
same,"Frequencies of myocardial infarction, cerebral infarction, or death, at POD 30: No myocardial infarction, cerebral infarction or death",[1]; [5],236 (78.4%)
same,Frequencies of myocardial infarction at POD 30: Myocardial Infarction,[1]; [6],59 (19.6%)
same,Frequencies of myocardial infarction at POD 30: No myocardial infarction,[1]; [6],242 (80.4%)
same,"Frequencies of myocardial infarction, cerebral infarction, or death, at POD 30: Myocardial infarction, cerebral infarction or death",[1]; [7],41 (13.6%)
same,"Frequencies of myocardial infarction, cerebral infarction, or death, at POD 30: No myocardial infarction, cerebral infarction or death",[1]; [7],260 (86.4%)
same,Frequencies of myocardial infarction at POD 30: Myocardial Infarction,[1]; [8],34 (11.3%)
same,Frequencies of myocardial infarction at POD 30: No myocardial infarction,[1]; [8],267 (88.7%)
same,"Frequencies of myocardial infarction, cerebral infarction, or death, at POD 30: Myocardial infarction, cerebral infarction or death",[1]; [9],31 (10.3%)
same,"Frequencies of myocardial infarction, cerebral infarction, or death, at POD 30: No myocardial infarction, cerebral infarction or death",[1]; [9],270 (89.7%)
same,Frequencies of myocardial infarction at POD 30: Myocardial Infarction,[1]; [10],23 (7.6%)
same,Frequencies of myocardial infarction at POD 30: No myocardial infarction,[1]; [10],278 (92.4%)
same,"Frequencies of myocardial infarction, cerebral infarction, or death, at POD 30: Myocardial infarction, cerebral infarction or death",[1]; [11],77 (25.6%)
same,"Frequencies of myocardial infarction, cerebral infarction, or death, at POD 30: No myocardial infarction, cerebral infarction or death",[1]; [11],224 (74.4%)
same,Frequencies of myocardial infarction at POD 30: Myocardial Infarction,[1]; [12],71 (23.6%)
same,Frequencies of myocardial infarction at POD 30: No myocardial infarction,[1]; [12],230 (76.4%)
same,"Frequencies of myocardial infarction, cerebral infarction, or death, at POD 30: Myocardial infarction, cerebral infarction or death",[1]; [13],47 (15.6%)
same,"Frequencies of myocardial infarction, cerebral infarction, or death, at POD 30: No myocardial infarction, cerebral infarction or death",[1]; [13],254 (84.4%)
same,Frequencies of myocardial infarction at POD 30: Myocardial Infarction,[1]; [14],38 (12.6%)
same,Frequencies of myocardial infarction at POD 30: No myocardial infarction,[1]; [14],263 (87.4%)
same,"Frequencies of myocardial infarction, cerebral infarction, or death, at POD 30: Myocardial infarction, cerebral infarction or death",[1]; [15],34 (11.3%)
same,"Frequencies of myocardial infarction, cerebral infarction, or death, at POD 30: No myocardial infarction, cerebral infarction or death",[1]; [15],267 (88.7%)
same,Frequencies of myocardial infarction at POD 30: Myocardial Infarction,[1]; [16],23 (7.6%)
same,Frequencies of myocardial infarction at POD 30: No myocardial infarction,[1]; [16],278 (92.4%)
same,reducing post-CABG morbidity and mortality,[1]; oral 250 mg/day,effective
same,"reducing total incidents (myocardial infarction, cerebral infarction, or death)",[1]; [5],highly effective
same,reducing instances of myocardial infarction,[1]; [5],highly effective
same,"reducing total incidents (myocardial infarction, cerebral infarction, or death)","[1]; oral 250 mg/day, CK-MB cut-off 70 ng/ml, better than 750 mg/day",highly effective
same,reducing instances of myocardial infarction,[1]; [7],highly effective
same,"reducing total incidents (myocardial infarction, cerebral infarction, or death)","[1]; oral 250 mg/day, CK-MB cut-off 100 ng/ml, better than 750 mg/day",highly effective
same,reducing instances of myocardial infarction,[1]; [9],highly effective
same,reducing post-CABG morbidity and mortality,[1]; oral 750 mg/day,effective
same,"reducing total incidents (myocardial infarction, cerebral infarction, or death)",[1]; [11],did not reduce
same,reducing instances of myocardial infarction,[1]; [11],not effective
same,"reducing total incidents (myocardial infarction, cerebral infarction, or death)",[1]; [13],highly effective
same,reducing instances of myocardial infarction,"[1]; oral 750 mg/day, CK-MB cut-off 70 ng/ml, not as effective as 250 mg/day",effective
same,"reducing total incidents (myocardial infarction, cerebral infarction, or death)",[1]; [15],highly effective
same,reducing instances of myocardial infarction,[1]; [15],highly effective
same,"effectiveness at reducing post-CABG morbidity and mortality, 250 mg/day compared with 750 mg/day","[1]; oral, CK-MB level greater than 50 ng/ml (pre-defined) or 70 ng/ml (post-hoc) as indicator",higher effectiveness
same,solubility,[2],essentially insoluble
same,adenosine triphosphate (ATP) induced calcium ion influx into cells,[3],inhibits
same,neuroprotective effects,[4],neuroprotective effects
